Measured values: patent US20240360179A1, “STAPLED PEPTIDES AND METHODS THEREOF” (FOG PHARMACEUTICALS, INC., priority 2021, published 2024)

test system: COLO320DM cells; experiment: COLO320DM proliferation assay (CellTiter-Glo); format: cell-based, human; details: read-out: COLO320DM Proliferation Abs IC50
Procedure: COLO320DM proliferation assay IC50: In some embodiments, inhibition of cell proliferation by provided technologies were assessed using cell lines related to or from certain conditions, disorders or diseases. In some embodiments, cell proliferation was assessed in COLO320DM cells. In some embodiments, assessment was performed using the following procedure: On Day 1, cultured COLO320DM cells in a T75 flask were trypsinized in 3 mL of 0.250% trypsin/EDTA for 5 min and quenched with 10 mL RPMI-1640+4% HI FBS assay media. The cells were spun down at 1200 rpm for 5 min, the cell pellet collected and re-suspended at 5000 cells/mL in assay media. Using a Combi liquid handler, cells were dispensed (50 uL, 250 cells/well) into three 384 well plates. Plates were incubated at 37° C., 5% CO2 for 18-22 h. On day 2, compounds were added. A liquid handling system was used to prepare the compound dilution and dispense compound into assay plates. The compounds were serially diluted 1/2 in 90% DMSO to create a 7 point dose curve. From compound plate, 100 nL of compound were dispensed directly into wells of the assay plates to create a dose curve starting at 20 uM and ending at 313 nM. Assay plates were incubated at 37° C., 5% CO2 for 96 h. On day 6, assay plates were removed from the incubator and allowed to sit at room temperature for 30 min. Using a liquid handler, 20 uL of CellTiter Glo reagent was added to each well. The assay plates were shaken for 2 min and allowed to sit on the bench for 10-15 minutes. The assay plates were read using the CellTiter Glo protocol on a GloMax microplate reader, and the data analyzed using GraphPad Prism. Activities of various agents, including various stapled peptides in Table E2, were confirmed.
In some embodiments, an assessment was performed as follows. On day 0, cells were seeded in cell culture media (RPMI1640, 4% FBS) in a 96-well plate at desired density, typically at 1000 cells/well. On day 1, 10 mM agent stock solution (in DMSO) was first serially diluted into DMSO at 1:2 ratio, followed by diluting with cell culture media at two times of the final concentrations. Finally, agent-containing media were introduced to cell culture wells already having the same volume of cell culture media. Cells were incubated with agents for desired days before lysed for CellTiter-Glo® Luminescent Cell Viability Assay according to the manufacture instruction (Promega, G7570). Luminescent signal was obtained from a microplate reader (GloMax, Promega). Cell viability data was expressed as % relative to DMSO control wells.
Proliferation Assay. In some embodiments, various proliferation assays are utilized to characterize or assess provided technologies. In some embodiments, on day 0, cells were seeded in cell culture media in a 96-well plate at desired density, typically at 1000 cells/well. On day 1, 10 mM compound stock solution was first serially diluted into DMSO, followed by diluting with cell culture media at two times of the final concentrations. Finally, compound-containing media were introduced to cell culture wells already having the same volume of cell culture media. Cells were incubated with compounds for desired days before lysed for CTG according to the manufacture instruction (G7570, Promega). Luminescent signal was obtained from a microplate reader (GloMax, Promega).

Row | Substance | IC50
1 | Ac-PL3-Asp-Ile-B5-Asp-3COOHF-Aib-Ala-Phe-Lys*3-PyrS2-Phe-3BrF-GlnR*3-NH2 [I-1604] | ≤ 10 µM
2 | Ac-PL3-Asp-Ile-B5-Asp-3COOHF-Aib-Ala-Phe-Lys*3-PyrS2-Phe-3ClF-GlnR*3-NH2 [I-1598] | ≤ 10 µM
3 | Ac-PL3-Asp-Ile-B5-Asp-3COOHF-Aib-Ala-Phe-Lys*3-PyrS2-Phe-34ClF-hGlnR*3-NH2 [I-1371] | > 20 µM
4 | Ac-PL3-Asp-Ile-B5-Asp-3COOHF-Aib-Ala-Phe-TriAzLys*3-PyrS2-Phe-34ClF-sCH2S*3-NH2 [I-1858] | ≤ 10 µM
5 | Ac-PL3-Asp-Ile-B5-Asp-3COOHF-Aib-Ala-Phe-TriAzOrn*3-PyrS2-Phe-34ClF-sCH2S*3-NH2 [I-1860] | ≤ 10 µM
6 | Ac-PL3-Asp-Ile-B5-Asp-3COOHF-Aib-Ala-Phe-hGlnR*3-PyrS2-Phe-34ClF-Lys*3-NH2 [I-1372] | ≤ 10 µM
7 | Ac-PL3-Asp-Ile-B5-Asp-3COOHF-Aib-Ala-Phe-sAla*3-PyrS2-Phe-34ClF-TriAzLys*3-NH2 [I-1857] | 10 to 20 µM
8 | Ac-PL3-Asp-Ile-B5-Asp-3COOHF-Aib-Ala-Phe-sCH2S*3-PyrS2-Phe-34ClF-TriAzLys*3-NH2 [I-1859] | ≤ 10 µM
9 | Ac-PL3-Asp-Ile-B5-Asp-3COOHF-Aib-Ala-Phe-sCH2S*3-PyrS2-Phe-34ClF-TriAzOrn*3-NH2 [I-1862] | ≤ 10 µM
10 | Ac-PL3-Asp-Ile-B5-Asp-3COOHF-Ala-Ala-Phe-Lys*3-PyrS2-3Thi-BztA-GlnR*3-Ala-NH2 [I-970] | ≤ 10 µM
11 | Ac-PL3-Asp-Ile-B5-Asp-3COOHF-Ala-Ala-Phe-TriAzLys*3-PyrS2-Phe-34ClF-sAla*3-NH2 [I-1863] | ≤ 10 µM
12 | Ac-PL3-Asp-Ile-B5-Asp-3COOHF-Ala-Ala-Phe-TriAzLys*3-PyrS2-Phe-34ClF-sCH2S*3-NH2 [I-1865] | ≤ 10 µM
13 | Ac-PL3-Asp-Ile-B5-Asp-3COOHF-Ala-Ala-Phe-sAla*3-PyrS2-Phe-34ClF-TriAzLys*3-NH2 [I-1864] | > 20 µM
14 | Ac-PL3-Asp-Ile-B5-Asp-3COOHF-Ala-Ala-Phe-sCH2S*3-PyrS2-Phe-34ClF-TriAzLys*3-NH2 [I-1866] | 10 to 20 µM
15 | Ac-PL3-Asp-Ile-B5-Asp-3COOHF-Ala-Ala-Phe-sCH2S*3-PyrS2-Phe-34ClF-TriAzOrn*3-NH2 [I-1869] | ≤ 10 µM
16 | Ac-PL3-Asp-Ile-B5-Asp-3COOHF-CyLeu-Ala-Phe-Lys*3-PyrS2-3Thi-34ClF-GlnR*3-NH2 [I-1040] | ≤ 10 µM
17 | Ac-PL3-Asp-Ile-B5-Asp-3COOHF-CyLeu-Ala-Phe-Lys*3-PyrS2-3Thi-34ClF-GlnR*3-Val-Thr-Ala-NH2 [I-1268] | ≤ 10 µM
18 | Ac-PL3-Asp-Ile-B5-Asp-3COOHF-CyLeu-Ala-Phe-Lys*3-PyrS2-Phe-34ClF-GlnR*3-NH2 [I-1052] | ≤ 10 µM
19 | Ac-PL3-Asp-Ile-B5-Asp-3COOHF-Phe-Ala-Phe-Lys*3-PyrS2-3Thi-34MeF-GlnR*3-NH2 [I-1102] | ≤ 10 µM
20 | Ac-PL3-Asp-Ile-B5-Asp-3COOHF-Phe-Ala-Phe-Lys*3-PyrS2-Phe-34MeF-GlnR*3-Ala-NH2 [I-1106] | ≤ 10 µM
21 | Ac-PL3-Asp-Ile-B5-Asp-3COOHF-Phe-Ala-Phe-Lys*3-PyrS2-Phe-34MeF-GlnR*3-NH2 [I-1107] | ≤ 10 µM
22 | Ac-PL3-Asp-Npg-B5-3COOHF-Asp-Aib-Ala-Phe-Lys*3-PyrS2-3Thi-BztA-GlnR*3-Ala-NH2 [I-742] | > 20 µM
23 | Ac-PL3-Asp-Npg-B5-Asp-3COOHF-Aib-Ala-Phe-Lys*3-PyrS2-2FF-34ClF-GlnR*3-NH2 [I-1537] | ≤ 10 µM
24 | Ac-PL3-Asp-Npg-B5-Asp-3COOHF-Aib-Ala-Phe-Lys*3-PyrS2-2NH2F-BztA-GlnR*3-Ala-NH2 [I-1736] | ≤ 10 µM
25 | Ac-PL3-Asp-Npg-B5-Asp-3COOHF-Aib-Ala-Phe-Lys*3-PyrS2-3Thi-34ClF-GlnR*3-Ala-Ala-Ala-[mPEG8]-Lys [I-1707] | ≤ 10 µM

Row | Substance | IC50
26 | Ac-PL3-Asp-Npg-B5-Asp-3COOHF-Aib-Ala-Phe-Lys*3-PyrS2-3Thi-34ClF-GlnR*3-Ala-Ala-Ala-[mPEG37]-Lys [I-1708] | ≤ 10 µM
27 | Ac-PL3-Asp-Npg-B5-Asp-3COOHF-Aib-Ala-Phe-Lys*3-PyrS2-3Thi-34ClF-GlnR*3-NH2 [I-867] | ≤ 10 µM
28 | Ac-PL3-Asp-Npg-B5-Asp-3COOHF-Aib-Ala-Phe-Lys*3-PyrS2-3Thi-34ClF-GlnR*3-Pro-NH2 [I-868] | ≤ 10 µM
29 | Ac-PL3-Asp-Npg-B5-Asp-3COOHF-Aib-Ala-Phe-Lys*3-PyrS2-3Thi-34ClF-GlnR*3-Ser-NH2 [I-869] | ≤ 10 µM
30 | Ac-PL3-Asp-Npg-B5-Asp-3COOHF-Aib-Ala-Phe-Lys*3-PyrS2-3Thi-BztA-GlnR*3-Ala-Ala-Arg-Ala-Ala-Ala-Ala-NH2 [I-1155] | ≤ 10 µM
31 | Ac-PL3-Asp-Npg-B5-Asp-3COOHF-Aib-Ala-Phe-Lys*3-PyrS2-3Thi-BztA-GlnR*3-Ala-Ala-Arg-Ala-Ala-Ala-Arg-NH2 [I-1157] | ≤ 10 µM
32 | Ac-PL3-Asp-Npg-B5-Asp-3COOHF-Aib-Ala-Phe-Lys*3-PyrS2-3Thi-BztA-GlnR*3-Ala-Ala-Leu-Leu-NH2 [I-806] | ≤ 10 µM
33 | Ac-PL3-Asp-Npg-B5-Asp-3COOHF-Aib-Ala-Phe-Lys*3-PyrS2-3Thi-BztA-GlnR*3-Ala-Ala-Leu-NH2 [I-805] | ≤ 10 µM
34 | Ac-PL3-Asp-Npg-B5-Asp-3COOHF-Aib-Ala-Phe-Lys*3-PyrS2-3Thi-BztA-GlnR*3-Ala-Ala-Lys-Ala-Ala-Ala-Lys-NH2 [I-1158] | ≤ 10 µM
35 | Ac-PL3-Asp-Npg-B5-Asp-3COOHF-Aib-Ala-Phe-Lys*3-PyrS2-3Thi-BztA-GlnR*3-Ala-Ala-Lys-Leu-Pro-Val-nLeu-NH2 [I-815] | ≤ 10 µM
36 | Ac-PL3-Asp-Npg-B5-Asp-3COOHF-Aib-Ala-Phe-Lys*3-PyrS2-3Thi-BztA-GlnR*3-Ala-Ala-Val-Pro-Ala-Leu-Arg-NH2 [I-817] | ≤ 10 µM
37 | Ac-PL3-Asp-Npg-B5-Asp-3COOHF-Aib-Ala-Phe-Lys*3-PyrS2-3Thi-BztA-GlnR*3-Ala-Ala-Val-Pro-Thr-Leu-Lys-NH2 [I-813] | ≤ 10 µM
38 | Ac-PL3-Asp-Npg-B5-Asp-3COOHF-Aib-Ala-Phe-Lys*3-PyrS2-3Thi-BztA-GlnR*3-Ala-Arg-Ala-Ala-Ala-Arg-Ala-NH2 [I-1156] | ≤ 10 µM
39 | Ac-PL3-Asp-Npg-B5-Asp-3COOHF-Aib-Ala-Phe-Lys*3-PyrS2-3Thi-BztA-GlnR*3-Ala-Lys-Leu-Pro-Val-nLeu-NH2 [I-814] | ≤ 10 µM
40 | Ac-PL3-Asp-Npg-B5-Asp-3COOHF-Aib-Ala-Phe-Lys*3-PyrS2-3Thi-BztA-GlnR*3-Ala-Val-Pro-Ala-Leu-Arg-NH2 [I-816] | ≤ 10 µM
41 | Ac-PL3-Asp-Npg-B5-Asp-3COOHF-Aib-Ala-Phe-Lys*3-PyrS2-3Thi-BztA-GlnR*3-Ala-Val-Pro-Thr-Leu-Lys-NH2 [I-812] | ≤ 10 µM
42 | Ac-PL3-Asp-Npg-B5-Asp-3COOHF-Aib-Ala-Phe-Lys*3-PyrS2-3Thi-BztA-GlnR*3-Leu-Ser-NH2 [I-785] | ≤ 10 µM
43 | Ac-PL3-Asp-Npg-B5-Asp-3COOHF-Aib-Ala-Phe-Lys*3-PyrS2-3Thi-BztA-GlnR*3-Pro-NH2 [I-719] | ≤ 10 µM
44 | Ac-PL3-Asp-Npg-B5-Asp-3COOHF-Aib-Ala-Phe-Lys*3-PyrS2-3Thi-BztA-GlnR*3-Ser-NH2 [I-721] | ≤ 10 µM
45 | Ac-PL3-Asp-Npg-B5-Asp-3COOHF-Aib-Ala-Phe-Lys*3-PyrS2-3Thi-BztA-GlnR*3-[mPEG4]Lys-NH2 [I-1181] | > 20 µM
46 | Ac-PL3-Asp-Npg-B5-Asp-3COOHF-Aib-Ala-Phe-Lys*3-PyrS2-3Thi-BztA-GlnR*3-[mPEG8]Lys-NH2 [I-1182] | > 20 µM
47 | Ac-PL3-Asp-Npg-B5-Asp-3COOHF-Aib-Ala-Phe-Lys*3-PyrS2-3Thi-BztA-GlnR*3-[mPEG16]Lys-NH2 [I-1183] | ≤ 10 µM
48 | Ac-PL3-Asp-Npg-B5-Asp-3COOHF-Aib-Ala-Phe-Lys*3-PyrS2-3Thi-BztA-GlnR*3-dPro-NH2 [I-720] | ≤ 10 µM
49 | Ac-PL3-Asp-Npg-B5-Asp-3COOHF-Aib-Ala-Phe-Lys*3-PyrS2-3Thi-BztA-hGlnR*3-NH2 [I-786] | ≤ 10 µM
50 | Ac-PL3-Asp-Npg-B5-Asp-3COOHF-Aib-Ala-Phe-Lys*3-PyrS2-Phe-34ClF-GlnR*3-NH2 [I-871] | ≤ 10 µM
